Experimental data: PubChem BioAssay (NCI)
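Tested at 5 concentrations; 48 h exposure; 96-well plates; endpoints linearly interpolated, else capped at highest concentration. Abbreviation: GI50, concentration required for 50% inhibition of growth. Definition used: TGI = concentration required for complete inhibition of growth.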

Assays:
Assay in all cases: growth of human tumour cells (NCI), 48 h
NCI-H460 lung = system: NCI-H460 lung
SF-268 CNS = system: SF-268 CNS
OVCAR-8 ovarian = system: OVCAR-8 ovarian
NCI-H23 lung = system: NCI-H23 lung
NCI-H522 lung = system: NCI-H522 lung
SK-MEL-28 melanoma = system: SK-MEL-28 melanoma
M14 melanoma = system: M14 melanoma
RPMI-8226 leukemia = system: RPMI-8226 leukemia
SK-MEL-5 melanoma = system: SK-MEL-5 melanoma
T-47D breast = system: T-47D breast

| Structure (SMILES) | GI50 (NCI-H460 lung) | TGI (NCI-H460 lung) | GI50 (SF-268 CNS) | TGI (SF-268 CNS) | GI50 (OVCAR-8 ovarian) | TGI (OVCAR-8 ovarian) | GI50 (NCI-H23 lung) | TGI (NCI-H23 lung) | GI50 (NCI-H522 lung) | TGI (NCI-H522 lung) | GI50 (SK-MEL-28 melanoma) | TGI (SK-MEL-28 melanoma) | GI50 (M14 melanoma) | TGI (M14 melanoma) | GI50 (RPMI-8226 leukemia) | TGI (RPMI-8226 leukemia) | GI50 (SK-MEL-5 melanoma) | TGI (SK-MEL-5 melanoma) | GI50 (T-47D breast) | TGI (T-47D breast) |
| --- | --- | --- | --- | --- | --- | --- | --- | --- | --- | --- | --- | --- | --- | --- | --- | --- | --- | --- | --- | --- |
| O=C(CNC(=O)c1cccc2ccccc12)Nc1ccccc1Oc1cccc(O)c1 | 5.82 µM | > 25 µM | 20.9 µM | > 25 µM | 11.4 µM | > 25 µM | 16 µM | > 25 µM | 1.62 µM | > 25 µM | > 25 µM | > 25 µM | 1.56 µM | > 25 µM | 8.04 µM | > 25 µM | 1.86 µM | > 25 µM | 9.84 µM | > 25 µM |
| C[C@]12CC[C@H]3[C@@H](CCC4=CC(=O)CC[C@@H]43)[C@@H]1CC[C@@H]2OC1(O)C(=O)c2ccccc2C1=O | – | > 100 µM | – | > 100 µM | – | > 100 µM | – | 62.5 µM | – | 35.9 µM | – | > 100 µM | – | > 100 µM | – | 80 µM | – | 35 µM | – | > 100 µM |
| FC(F)(F)c1ccc2c(c1)N(CCCN1CCN(C3CC3)CC1)c1ccccc1S2 | 5.99 µM | 19.8 µM | 12.7 µM | 26.8 µM | 13 µM | 26.8 µM | 7.42 µM | 23.1 µM | 11.5 µM | 25.8 µM | 15.2 µM | 29.1 µM | 15.1 µM | 30.7 µM | 6.18 µM | 25.8 µM | 4.08 µM | 14.4 µM | 12.5 µM | 26.9 µM |
| CCOC(=O)C1CCC/C1=N\N=C(N)N (stereo unspecified) (tested in a mixture with another compound) | – | > 100 µM | – | > 100 µM | – | > 100 µM | – | > 100 µM | – | > 100 µM | – | > 100 µM | – | > 100 µM | – | > 100 µM | – | > 100 µM | – | > 100 µM |
| CC[C@@]1(O)C(=O)NCc2c1cc1n(c2=O)Cc2cc3cc4c(cc3nc2-1)OCO4 | 0.219 µM | 16.9 µM | 0.236 µM | > 30.7 µM | 0.391 µM | 6.99 µM | 0.798 µM | > 13.2 µM | 0.517 µM | 54.6 µM | 45.1 µM | > 100 µM | 0.441 µM | > 39.2 µM | 0.293 µM | 9.02 µM | 1.23 µM | 27.8 µM | 0.842 µM | > 27.1 µM |
| COc1ccc(NC2=C(Sc3nc(C)cc(C)n3)C(=O)N(Cc3ccccc3)C2=O)cc1Cl | > 160 µM | > 160 µM | > 160 µM | > 160 µM | 99.2 µM | > 160 µM | > 160 µM | > 160 µM | > 160 µM | > 160 µM | > 160 µM | > 160 µM | > 160 µM | > 160 µM | 8.79 µM | > 160 µM | 33.9 µM | > 160 µM | 25.1 µM | > 160 µM |
| CN(C)c1cccc2[nH]c(-c3[nH]ncc3Nc3ccnc(N)n3)nc12 | 0.054 µM | 1.05 µM | 0.0179 µM | 0.104 µM | 0.0213 µM | 1.68 µM | 0.0232 µM | 0.217 µM | 0.0221 µM | 0.166 µM | 0.0183 µM | 0.452 µM | 0.0222 µM | 0.0812 µM | 0.281 µM | 0.885 µM | 0.0295 µM | 0.15 µM | 0.0331 µM | 2.01 µM |
| Cc1cccc2c3c(sc12)C(c1ccc(Cl)cc1)C(C#N)=C(/N=C/c1ccc(Cl)cc1)O3 (stereo unspecified) | 0.425 µM | > 100 µM | 1.93 µM | 46.2 µM | 0.46 µM | > 100 µM | 0.446 µM | 14.2 µM | 0.304 µM | 3.12 µM | 4.73 µM | > 100 µM | 0.308 µM | > 52.6 µM | 0.408 µM | > 28.3 µM | 0.47 µM | > 100 µM | 0.625 µM | > 100 µM |
| CC1C(=O)N=C2C(=CN(Cc3ccccc3)c3ccccc32)C(=O)N1C (stereo unspecified) | – | > 100 µM | – | > 100 µM | – | > 100 µM | – | > 100 µM | – | > 100 µM | – | > 100 µM | – | > 100 µM | – | > 100 µM | – | > 100 µM | – | > 100 µM |
| O=c1c2cc(Br)ccc2oc2ccc(Br)cc12 | – | > 100 µM | – | > 100 µM | – | > 100 µM | – | > 100 µM | – | > 100 µM | – | > 100 µM | – | > 100 µM | – | > 100 µM | – | > 100 µM | – | > 100 µM |
| CC(C)(C)Cn1c(N)nc2ccc(-c3[nH]c(C(C)(C)C)nc3-c3ccc(F)cc3)nc21 | 7.46 µM | 26.5 µM | 10.6 µM | 28.7 µM | 10.8 µM | 25.8 µM | 13.9 µM | 31 µM | 8.5 µM | 23.8 µM | 11.6 µM | 23.8 µM | 11.4 µM | 24.7 µM | 3.29 µM | 28.4 µM | 11 µM | 23 µM | 5.34 µM | 23.7 µM |
| CCCCCC(=O)N1c2ccccc2NC2=C(C(=O)CC(c3ccc(OC)c(OC)c3)C2)C1c1ccc(C(F)(F)F)cc1 (stereo unspecified) | > 100 µM | > 100 µM | > 100 µM | > 100 µM | > 100 µM | > 100 µM | > 100 µM | > 100 µM | 70.8 µM | > 100 µM | > 100 µM | > 100 µM | – | – | 5.98 µM | > 100 µM | 62.8 µM | > 100 µM | > 100 µM | > 100 µM |
| CCOC(=O)c1cc2c(cc1Cl)SC(N(c1ccc(F)cc1)S(=O)(=O)c1ccc(OC)cc1)=NS2(=O)=O | 17 µM | 36.2 µM | 14.5 µM | 31.4 µM | – | – | 18.5 µM | 44 µM | 13.5 µM | 29.9 µM | 14.1 µM | 29 µM | 19.5 µM | 49.1 µM | 15 µM | 51.5 µM | 13.6 µM | 26.5 µM | 4.8 µM | 21.9 µM |
